From PMC11228755 (RSC Advances, 2024)
Values joined by “and” are separate entries in the source; they are usually repeats but may differ in a detail not shown here. Identical values can stand only once. Marks after values point to notes of the source that are not given here.

What was measured:
[1] = system: Salmonella typhimurium TA102; settings: positive control, 20 μg per plate, +S9
[2] = system: Salmonella typhimurium TA98; experiment: Ames test; settings: positive control, 50 μg per plate, −S9
[3] = system: Salmonella typhimurium TA97a; experiment: Ames test; settings: positive control, 50 μg per plate, −S9
[4] = system: Salmonella typhimurium TA1535; experiment: Ames test; settings: positive control, 1 μg per plate, −S9
[5] = system: Salmonella typhimurium TA100; experiment: Ames test; settings: positive control, 1 μg per plate, −S9

Nc1ccc2cc3ccccc3cc2c1 [2-Aminoanthracene, 2-aminoanthracene]
Number of revertants TA102 [1]: 2121 ± 21 ^e

CN(C)c1ccc(N=NS(=O)(=O)[O-])cc1.[Na+] [Dioxone, dioxone]
Number of revertants TA98 [2]: 1111 ± 117 ^a | Number of revertants TA97a [3]: 1872 ± 104 ^a

[N-]=[N+]=[N-].[Na+] [Sodium azide, sodium azide]
Number of revertants TA1535 [4]: 1190 ± 40 ^c and 1333 ± 53 ^c | Number of revertants TA100 [5]: 1697 ± 54 ^c
